The values below come from patent publication US12186303B2, “Feed additive for cattle comprising n-acetyl-l-tryptophan as active ingredient” (CJ CHEILJEDANG CORPORATION, priority 2018, dated 2025).

For assay [1], the system named is Korean native steers. Briefly: Body weight and average daily gain according to NALT feeding under heat stress conditions. Type of assay: in vivo, Korean native cattle. On the procedure:
In the present disclosure, 8 Korean native steers (15.9±0.16 months old on average) were selected and used. The experimental procedure and method were approved by the Institutional Animal Care and Use Committee at Konkuk University, Seoul, Republic of Korea (Approval No. KU17136). […] Analysis of chemical composition (moisture, crude protein, crude fat, crude ash, etc.) and amino acids (19 types) of the basal diet stored at −20° C. was performed, and the results are shown in Table 3. After grouping the animals by statistical analysis of initial body weights, the animals were bred in 1.0×1.5 m^2 individual pens during the experiment period. The feed was offered based on an amount of dry matter of daily total mixed ration (TMR) per head. After 7 days of an adaptation period for N-acetyl-L-tryptophan (NALT), a mixture of 0.1% N-acetyl-L-tryptophan (NALT) and the total mixed ration was fed to individual animals every morning at 8 a.m. for 6 weeks, and water was available ad libitum. Total amounts of L-tryptophan ingested by the control and the experimental group (NALT-treated group) by feeding NALT were 6.0 g/day/head and 18.2 g/day/head, respectively. The experiment was performed such that the NALT-treated group ingested 12.2 g/day/head more L-tryptophan than the control. Meanwhile, results of growth performance analysis (body weight and average feed intake) and genetic analysis of loin tissue were obtained by statistically comparing and analyzing significant differences between the control and the NALT-treated group, and results of hematological analysis were obtained via statistical comparison and analysis depending on NALT treatment, experiment period (days), and interaction (treatment×days). These numerical values were expressed as average values, and a significance test was performed at the 5% level using Student's t-test by using a JMP 5.0 software package (SAS Institute Inc., Cary, NC, USA). Temperature (° C.) and relative humidity (%) were recorded every day during a one-week adaptation period and a 6-week experiment period using a portable temperature and humidity meter. Average temperature and average relative humidity of each week were calculated using the temperature and relative humidity recorded during the total experiment period. In addition, a temperature-humidity index (THI) was calculated using temperature and humidity as shown in the following equation, and heat stress state may be diagnosed using the THI as an index feature of a heat load. THI=(1.8×T+32)−[0.55−0.0055×RH)×(1.8×T−26.8) Initial weight (week 0), intermediate weight (week 5), and end weight (week 10) of sentinel animals were measured, i.e., three times in total, before offering morning feed. The average daily gain (ADG) of the sentinel animals was calculated by dividing the differences in weight, between the initial weight and the intermediate weight and between the intermediate weight and the end weight, by the total number of days of the experiment.

The subject of assay [2] is Korean native steers. Briefly: Feed intake according to NALT feeding under cold stress conditions. Type of assay: in vivo, Korean native cattle. As to conditions: for Feed intake: 0.1% NALT. The source says: After grouping the animals by statistical analysis of initial body weights, the animals were bred in 1.0×1.5 m^2 individual pens during the experiment period. The feed was offered based on an amount of dry matter of daily total mixed ration (TMR) per head. After 7 days of an adaptation period for N-acetyl-L-tryptophan (NALT), a mixture of 0.1% N-acetyl-L-tryptophan (NALT) and the total mixed ration was fed to individual animals every morning at 8 a.m. for 6 weeks, and water was available ad libitum. Total amounts of L-tryptophan ingested by the control and NALT-treated group by feeding NALT were 7.37 g/day/head and 16.26 g/day/head, respectively. The experiment was performed such that the NALT-treated group ingested 8.89 g/day/head more L-tryptophan than that of the control. Meanwhile, results of growth performance analysis (body weight and average feed intake) and genetic analysis of loin tissue were obtained by statistically comparing and analyzing significant differences between the control and the NALT-treated group, and results of hematological analysis were obtained via statistical comparison and analysis depending on NALT treatment, experiment period (days), and interaction (treatment×days). These numerical values were expressed as average values, and a significance test was performed at the 5% level using Student's t-test by using the JMP 5.0 software package (SAS Institute Inc., Cary, NC, USA). Feed intake of each sentinel animal was calculated by measuring a total amount of feed offered and an amount left over every day.

`CC(=O)N[C@@H](Cc1c[nH]c2ccccc12)C(=O)O` [NALT, N-acetyl-L-tryptophan]: the Body weight was found to be 428.8 kg in the assay with Korean native steers [1] (heat stress, 0.1% NALT, Week 0 (initial weight)); 480.8 kg with Korean native steers [1] (heat stress, 0.1% NALT, Week 5); 510.5 kg in the assay with Korean native steers [1] (heat stress, 0.1% NALT, Week 10). Also, the ADG in the assay with Korean native steers [1] (heat stress, 0.1% NALT, week 0 to week 5) came out at 1.49 kg/day; in the assay with Korean native steers [1] (heat stress, 0.1% NALT, week 5 to week 10) it was 0.85 kg/day. For the same compound, the “Total ADG” value in the assay on Korean native steers [1] (heat stress, 0.1% NALT, week 0 to week 10) amounted to 1.17 kg/day. Besides, the “Average daily gain compared to the control” value in the assay on Korean native steers [1] (period where the THI was over 80 (high heat stress)) is given as “significantly increased”. In addition, the Feed intake in the assay with Korean native steers [2] (Days 0-6 (adaptation period)) is 8.56 kg; in the assay on Korean native steers [2] (Days 7-13), 9.21 kg; in the assay with Korean native steers [2] (Days 7-48 (entire experiment period)), 9.86 kg; in the assay with Korean native steers [2] (Days 14-20), 9.56 kg; in the assay with Korean native steers [2] (Days 21-27), 9.68 kg; with Korean native steers [2] (Days 28-34) it was 10.22 kg. Further, the Feed intake in the assay with Korean native steers [2] (Days 35-41) is 10.02 kg; in the assay on Korean native steers [2] (Days 42-48), 10.56 kg. In addition, the “Feed intake compared with the control” value was “No statistically significant difference” in the assay on Korean native steers [2] (adaptation period (days 0-6)) and “no statistically significant difference” in the assay with Korean native steers [2] (days 7-41). In addition, the “Increase in average feed intake per head compared to the control” value in the assay with Korean native steers [2] (days 7-48) is given as “about 4.6%”. Besides, the “Increase in feed intake compared to the control” value in the assay with Korean native steers [2] (days 42-48) is listed as “about 1.02 kg”. Further, the “Average feed intake per head” value with Korean native steers [2] (entire experiment period (days 7-48)) was 9.86 kg/day/head.
